Laboratory results published in patent US7838495B2, “Compositions and methods of use of EPB1, and ErbB3 binding protein” (University of Maryland, Baltimore, priority 2007, dated 2010).

What was measured:
Format in all cases: cell-based, human
LNCaP cells [1] = test: Growth response of LNCaP vector controls and EBP1 transfectants to DHT and bicalutamide; set-up: Emax: dose or concentration left out as unconfirmed
Protocol: Cell Growth Assays: To measure growth in complete media, cells (2×10^4) were seeded in triplicate in individual wells of 12-well tissue culture plates in RPMI-1640 with 10% FBS and cultured for the indicated number of days. Cells were trypsinized, stained with Trypan Blue (0.4%), and counted in a hemacytometer. For soft agar growth assays, increasing concentrations of cells (as indicated) were plated in 35 mm Petri dishes in complete media and 0.3% Difco Bacto Agar over an 0.5% agar layer. Colonies were counted after 10 days of incubation. For studies assessing the effect of dihydrotestosterone (DHT) on cell growth, cells (2×10^4) were plated in 12-well plates in complete media. After a 24-hour attachment period, the medium was replaced with steroid-free medium [phenol red-free RPMI 1640 and 5% charcoal-stripped FBS (Sigma)] for 48 hours. The final concentration of testosterone in the steroid-reduced media was less than 5 pM. After 48 hours of steroid depletion, cells were re-fed with fresh steroid-reduced medium with or without the indicated concentrations of DHT and/or bicalutamide (10 μM), and total cell numbers were assessed 7 days later.

C81 cells [2] = test: Response of C81 transfectants to DHT and bicalutamide; conditions: steroid reduced medium
Protocol: FIG. 4A-C. […] Equal numbers (5×10^4) of vector or EBP1 stably transfected cells were plated at Day 0 in complete media and viable cell numbers determined at the indicated times. Each point represents mean±S.E. of 3 wells. Representative of 3 experiments (Right panel). Colony growth in soft agar. C81 cells stably transfected with either pcDNA or EBP1 were plated in soft agar at the cell densities indicated and colony numbers assessed at Day 10. Each point represents mean±S.E. of 3 dishes. Data is representative of 3 experiments. B. (Left Panel) Response of EBP1 and vector transfected C81 cells to dihydrotestosterone (DHT). EBP1 and vector control C81 transfected cells and early passage LNCaP cells were plated in complete media at 5×10^3 cells/well in 96 well plates for one day. […] Total cell numbers were determined seven days later by MTT assays. […] Total cell numbers were assessed 7 days later by MTT assay. […] Total cell numbers were determined by MTT assays 5 days later. […]
Western Blot Analysis. […] For soft agar growth assays, increasing concentrations of cells (as indicated) were plated in 35 mm Petri dishes in 0.3% agar in complete media and colonies were counted after 10 days of incubation (21). […] Relative cell growth was determined using a Promega Proliferation Reagent (Promega, Madison Wis.) as per manufacturer's instructions with absorbance being read at […] using a Dynex plate reader. […]

MCF-7 cells = test: Growth of MCF-7 vector control and EBP1 transfectants in response to HRG or EGF
Protocol: FIG. 9A-D. Ectopic expression of EBP1 blocks HRG-induced proliferation. (A) MCF 7 cells were stably transfected with a control Flag vector (CMV) or a FLAG-EBP1 vector (EBP1). Cells lysates were analyzed by Western blotting for FLAG and actin levels as indicated (left panel) or EBP1 and actin (right panel). (B) MCF-7 vector control (Control) or EBP1 transfected cells (EBP1) were plated in 96-well plates in complete media overnight, and then switched to media with 2% FBS and the indicated concentrations of HRGb1 as described in Section 2. Growth was determined 4 days later using a Promega Proliferation Assay. Each point represents the mean±SD for six wells. Data shown are representative of three experiments. (C) AU565 vector control (Control) or EBP1 transfected cells (EBP1) were plated in 96-well plates in complete media overnight, and then switched to media with 2% FBS and the indicated concentrations of HRGβ1. Growth was determined 4 days later using a Promega Proliferation Assay. Each point represents the mean±SD for six wells and is representative of two experiments. […] Growth was determined 4 days later using a Promega Proliferation Assay. […]
2.5. […] Protein concentrations were measured using a detergent compatible kit (Bio-Rad). […] Images were quantified using IMAGE-J software (NIH). […]

C81 cells [3] = test: Sensitivity of C81 transfectants to chemotherapeutic drugs (MTT); conditions: for sensitivity to Docetaxel: androgen deprived conditions; for decrease of growth: 20 nM, steroid reduced media
Protocol: FIG. 4A-C. […] Equal numbers (5×10^4) of vector or EBP1 stably transfected cells were plated at Day 0 in complete media and viable cell numbers determined at the indicated times. Each point represents mean±S.E. of 3 wells. Representative of 3 experiments (Right panel). Colony growth in soft agar. C81 cells stably transfected with either pcDNA or EBP1 were plated in soft agar at the cell densities indicated and colony numbers assessed at Day 10. Each point represents mean±S.E. of 3 dishes. Data is representative of 3 experiments. B. (Left Panel) Response of EBP1 and vector transfected C81 cells to dihydrotestosterone (DHT). EBP1 and vector control C81 transfected cells and early passage LNCaP cells were plated in complete media at 5×10^3 cells/well in 96 well plates for one day. The next day, cells were switched to steroid reduced medium for two days as described in the Materials and Methods. DHT was then added at the indicated concentrations. Cells were refed media every 3 days. Total cell numbers were determined seven days later by MTT assays. Each point represents mean±S.E. of 6 wells. Data is representative of two experiments. (Right Panel) Effect of Bicalutamide on DHT stimulated growth. Cells were plated as described in the Materials and Methods. After 2 days in steroid reduced medium, cells were fed with fresh steroid reduced medium with or without 10 μM bicalutamide (Casodex) in the presence or absence of 10 nM DHT. Total cell numbers were assessed 7 days later by MTT assay. Cells were refed media every 3 days. The data shown are mean±S.E. of six wells. […] C. […] C81 vector control or EBP1 transfectants were plated in 96 well plates in complete media and allowed to attach overnight. The cells were then placed in steroid reduced media for two days and then refed with steroid reduced media in the presence of the indicated concentrations of Docetaxel (left panel) or Mitoxantrone (right panic). Total cell numbers were determined by MTT assays 5 days later. Each point represents mean±S.E. of 6 wells. Data is representative of two experiments.
Western Blot Analysis. Western blot analysis was performed as previously described (19). The Ebp1 antibody was from Upstate (Lake Placid, N.Y.), the polyclonal antibody to actin from Sigma, the AKT and phospho AKT antibodies from Cell Signaling (Beverly, Mass.) and the AGR2 antibody was previously described (20) Cell Growth Assays Cell growth measurement in complete media was performed as described using a hemocytometer (21). For soft agar growth assays, increasing concentrations of cells (as indicated) were plated in 35 mm Petri dishes in 0.3% agar in complete media and colonies were counted after 10 days of incubation (21). For studies assessing the effect of DHT, HRG or chemotherapeutic agents on cell growth, cells (5×10^3) were plated in 96 well plates in complete media. After a 24-hour attachment period, the medium was replaced with steroid free medium [phenol red free RPMI 1640 and 5% charcoal stripped fetal bovine serum (Sigma)]. After 48 hours of steroid depletion, cells were refed with fresh steroid reduced medium with or without the indicated concentrations of DHT, bicalutamide (Casodex) (10 μM), HRG or the chemotherapeutic drugs at the concentrations indicated. Relative cell growth was determined using a Promega Proliferation Reagent (Promega, Madison Wis.) as per manufacturer's instructions with absorbance being read at […] using a Dynex plate reader. […]

LNCaP cells [4] = test: Response of A16 and C13 LNCaP cells to docetaxel (MTT)
Protocol: FIG. 7A-C. Suppression of EBP1 by shRNA promotes a hormone refractory phenotype A. Western blot analysis of Ebp1. Lysates of LNCaP cells stably transduced with a control lentivirus (A16) or an EBP1 targeted shRNA (13C) were collected and resolved by SDS-PAGE. Western blots were probed for endogenous EBP1 or ACTIN as indicated. B. Inhibition of EBP1 expression abrogates the ability of HRG to arrest growth (Left panel) Control and shRNA EBP1 targeted cells were plated in complete media at […] for one day. The next day, cells were switched to steroid reduced-media and HRG added at the indicated concentrations. Total cell numbers were determined seven days later by MTT assay. Each point represents mean±S.E. of 6 wells. Data is representative of three experiments. (Right Panel) AKT phosphorylation in EBP1 knock out cells Control (A16) or EBP 1 knock out cells (C13) were treated with HRG (20 ng/ml) for 15 mm and cell lysates assessed for the presence of phospho and total AKT as indicated. C. […] Sixteen hours later, luciferase activity was measured. […] Lysates of logarithmically growing A16 and C13 cells were resolved by SDS-PAGE and analyzed by Western blotting using antibodies to AGR2 and ACTIN as indicated. […] The viability of the cells was determined by MTT assays 5 days later. […]

## C[C@]12CCC(=O)C[C@@H]1CC[C@@H]1[C@@H]2CC[C@]2(C)[C@@H](O)CC[C@@H]12 [DHT, dihydrotestosterone]
LNCaP cells [1]; Homo sapiens, LNCaP, read-out: maximal stimulation of growth by DHT
  Emax: 250%
LNCaP cells [1]; LNCaP EBP1 transfectants, 10^-9 M DHT
  stimulation of growth by DHT: 35%
C81 cells [2]; EBP1 transfected C81 cells
  growth response to androgen (DHT): responded to androgen in a similar manner as the original low passage LNCaP androgen sensitive cells
C81 cells [2]; vector control C81 cells
  growth response to androgen (DHT): unresponsive

## EGF: growth factor from Sigma used to stimulate MCF-7 growth
MCF-7 cells; MCF-7 EBP1 transfected cells
  growth response to EGF: growth stimulated by EGF to the same extent as control cells
MCF-7 cells; MCF-7 control cells
  growth response to EGF: able to respond to EGF

## CC(=O)O[C@@]12CO[C@@H]1C[C@H](O)[C@@]1(C)C(=O)[C@H](O)C3=C(C)[C@@H](OC(=O)[C@H](O)[C@@H](NC(=O)OC(C)(C)C)c4ccccc4)C[C@@](O)([C@@H](OC(=O)c4ccccc4)[C@H]21)C3(C)C [Docetaxel]
C81 cells [3]; C81 cells
  sensitivity to Docetaxel: relatively refractory
C81 cells [3]; EBP1 transfected C81 cells, 5-20 nM
  sensitivity to Docetaxel: significantly more sensitive
LNCaP cells [4]; A16 control LNCaP cells, 5 nM
  reduction in growth: 65%
LNCaP cells [4]; Homo sapiens, C13 EBP1 knock down LNCaP cells, 20 nM, read-out: maximum growth inhibition
  inhibition at 0.02 µM: 15%

## O=C1c2c(O)ccc(O)c2C(=O)c2c(NCCNCCO)ccc(NCCNCCO)c21 [Mitoxantrone]
C81 cells [3]; C81 EBP1 transfectants
  decrease of growth: approximately 80%
C81 cells [3]; C81 vector controls
  decrease of growth: 40%
C81 cells [3]; both vector control and EBP1 transfectants
  concentration at which sensitivity plateaued: 20 nM
